Data: the supplement of paper PMC11208160

experiment: recombinant UMI read abundance after kanamycin selection (control-corrected) (log10(CPM+1)); higher = more efficient recombination; extreme values may be limits of the assay; sequences stand for … in AGTGCAGAGAAAATCGGCCAGTTTTCTCTGCCTGCAGTCCGCATGCCGTGGGACCCCTTGGGTTCTAACCTGTTGCCTAGATTTATGCAGCGGACTGCCTTTCTCCCAAAGTGATAAACCGG…AGGTTGGTTTCACT; site = the 11-nt donor
How it was run: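 For the IS621 bridge recombinase, a pooled Escherichia coli screen tested donor and donor-binding-loop pairs. Cells received the pair library together with a target plasmid encoding a fixed target and T7-inducible recombinase, then went onto IPTG (0.07 mM) plus kanamycin or unselected plates in duplicate. After PCR across the donor–target junction and sequencing, recombinant UMI counts were normalized to CPM, averaged, and scaled by control-derived factors. Each value is given as log10(CPM+1).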

Row | Sequence | recombinant UMI read abundance (log10)
1 | TGTGGAACATGGACCGGTTTTCCCGGTAATCCGTATTTGTT (site TGTGGAACTAA) | 0.511
2 | TGTGTAACATGGACCGGTTTTCCCGGTAATCCGTATTTGAC (site TGTGTAACTGT) | 0
3 | TGTTAGGCATGGACCGGTTTTCCCGGTAATCCGTATTTGGT (site TGATAGGCTAC) | 0.0087
4 | TGTTAGGCATGGACCGGTTTTCCCGGTAATCCGTATTTGGT (site TGCTAGGCTAC) | 0.304
5 | TGTTAGGCATGGACCGGTTTTCCCGGTAATCCGTATTTGGT (site TGGTAGGCTAC) | 0.017
6 | TGTTAGGCATGGACCGGTTTTCCCGGTAATCCGTATTTGGT (site TGTTAGGCTAC) | 0.273
7 | TGTTCACCATGGACCGGTTTTCCCGGTAATCCGTATTTGAC (site TGTACACCTGT) | 0
8 | TGTTCACCATGGACCGGTTTTCCCGGTAATCCGTATTTGAC (site TGTCCACCTGT) | 0
9 | TGTTCACCATGGACCGGTTTTCCCGGTAATCCGTATTTGAC (site TGTGCACCTGT) | 0
10 | TGTTCACCATGGACCGGTTTTCCCGGTAATCCGTATTTGAC (site TGTTCACCTGT) | 0
11 | TGTTCCCCATGGACCGGTTTTCCCGGTAATCCGTATTTGTG (site TGTTCCCCTAA) | 0.00613
12 | TGTTCCCCATGGACCGGTTTTCCCGGTAATCCGTATTTGTG (site TGTTCCCCTCA) | 0.0316
13 | TGTTCCCCATGGACCGGTTTTCCCGGTAATCCGTATTTGTG (site TGTTCCCCTGA) | 0
14 | TGTTCCCCATGGACCGGTTTTCCCGGTAATCCGTATTTGTG (site TGTTCCCCTTA) | 0
15 | TGTTCCCCATGGACCGGTTTTCCCGGTAATCCGTATTTGTT (site TGTTCCCCTAA) | 0.014
16 | TGTTCCCCATGGACCGGTTTTCCCGGTAATCCGTATTTGTT (site TGTTCCCCTCA) | 0.0148
17 | TGTTCCCCATGGACCGGTTTTCCCGGTAATCCGTATTTGTT (site TGTTCCCCTGA) | 0
18 | TGTTCCCCATGGACCGGTTTTCCCGGTAATCCGTATTTGTT (site TGTTCCCCTTA) | 0.0133
19 | TGTTCCGCATGGACCGGTTTTCCCGGTAATCCGTATTTGTA (site TGTTCCACTTA) | 0.00713
20 | TGTTCCGCATGGACCGGTTTTCCCGGTAATCCGTATTTGTA (site TGTTCCCCTTA) | 0.0203
21 | TGTTCCGCATGGACCGGTTTTCCCGGTAATCCGTATTTGTA (site TGTTCCGCTTA) | 0.0982
22 | TGTTCCGCATGGACCGGTTTTCCCGGTAATCCGTATTTGTA (site TGTTCCTCTTA) | 0
23 | TGTTCTCCATGGACCGGTTTTCCCGGTAATCCGTATTTGTA (site TGTTCACCTTA) | 0.0104
24 | TGTTCTCCATGGACCGGTTTTCCCGGTAATCCGTATTTGTA (site TGTTCCCCTTA) | 0.00777
25 | TGTTCTCCATGGACCGGTTTTCCCGGTAATCCGTATTTGTA (site TGTTCGCCTTA) | 0.0191

Row | Sequence | recombinant UMI read abundance (log10)
26 | TGTTCTCCATGGACCGGTTTTCCCGGTAATCCGTATTTGTA (site TGTTCTCCTTA) | 0.679
27 | TGTTGGACATGGACCGGTTTTCCCGGTAATCCGTATTTGTG (site TGTTGGACTCA) | 0.117
28 | TGTTGTGCATGGACCGGTTTTCCCGGTAATCCGTATTTGCG (site TGTTGTGCTCG) | 0.684
29 | TTAAGAGCATGGACCGGTTTTCCCGGTAATCCGTATTTGCA (site TTAAGAGCTTG) | 2.63
30 | TTAAGGCCATGGACCGGTTTTCCCGGTAATCCGTATTTGAC (site ATAAGGCCTGT) | 0
31 | TTAAGGCCATGGACCGGTTTTCCCGGTAATCCGTATTTGAC (site CTAAGGCCTGT) | 0
32 | TTAAGGCCATGGACCGGTTTTCCCGGTAATCCGTATTTGAC (site GTAAGGCCTGT) | 0
33 | TTAAGGCCATGGACCGGTTTTCCCGGTAATCCGTATTTGAC (site TTAAGGCCTGT) | 0
34 | TTAAGTCCATGGACCGGTTTTCCCGGTAATCCGTATTTGTA (site TAAAGTCCTTA) | 0.00903
35 | TTAAGTCCATGGACCGGTTTTCCCGGTAATCCGTATTTGTA (site TCAAGTCCTTA) | 0.361
36 | TTAAGTCCATGGACCGGTTTTCCCGGTAATCCGTATTTGTA (site TGAAGTCCTTA) | 0.0153
37 | TTAAGTCCATGGACCGGTTTTCCCGGTAATCCGTATTTGTA (site TTAAGTCCTTA) | 1.44
38 | TTAATAGCATGGACCGGTTTTCCCGGTAATCCGTATTTGAT (site TTAATAGCTAT) | 1.76
39 | TTAATTCCATGGACCGGTTTTCCCGGTAATCCGTATTTGTG (site TTAATTCCTCA) | 0.4
40 | TTACAACCATGGACCGGTTTTCCCGGTAATCCGTATTTGCA (site TTACAACCTTG) | 0
41 | TTACACTCATGGACCGGTTTTCCCGGTAATCCGTATTTGAT (site TTACACTCTAT) | 2.95
42 | TTACAGACATGGACCGGTTTTCCCGGTAATCCGTATTTGAG (site TTACAGACTCT) | 1.21
43 | TTACGAACATGGACCGGTTTTCCCGGTAATCCGTATTTGAC (site TTACGAACTGT) | 2.28
44 | TTACTAACATGGACCGGTTTTCCCGGTAATCCGTATTTGGA (site ATACTAACTTC) | 0.0425
45 | TTACTAACATGGACCGGTTTTCCCGGTAATCCGTATTTGGA (site CTACTAACTTC) | 0.457
46 | TTACTAACATGGACCGGTTTTCCCGGTAATCCGTATTTGGA (site GTACTAACTTC) | 0.288
47 | TTACTAACATGGACCGGTTTTCCCGGTAATCCGTATTTGGA (site TTACTAACTTC) | 0.363
48 | TTAGAATCATGGACCGGTTTTCCCGGTAATCCGTATTTGAC (site CTAGTATCTGT) | 0
49 | TTAGAATCATGGACCGGTTTTCCCGGTAATCCGTATTTGAC (site TTAGAATCTGT) | 1.48
50 | TTAGCTACATGGACCGGTTTTCCCGGTAATCCGTATTTGTG (site TTAGCTACTCA) | 0.319

Row | Sequence | recombinant UMI read abundance (log10)
51 | TTAGCTACATGGACCGGTTTTCCCGGTAATCCGTATTTGTG (site TTAGCTCCTCA) | 0.00713
52 | TTAGCTACATGGACCGGTTTTCCCGGTAATCCGTATTTGTG (site TTAGCTGCTCA) | 0.0109
53 | TTAGCTACATGGACCGGTTTTCCCGGTAATCCGTATTTGTG (site TTAGCTTCTCA) | 0.0149
54 | TTAGCTGCATGGACCGGTTTTCCCGGTAATCCGTATTTGTC (site TTAGCTGCTAA) | 0.00712
55 | TTAGCTGCATGGACCGGTTTTCCCGGTAATCCGTATTTGTC (site TTAGCTGCTCA) | 0.00796
56 | TTAGCTGCATGGACCGGTTTTCCCGGTAATCCGTATTTGTC (site TTAGCTGCTGA) | 2.26
57 | TTAGCTGCATGGACCGGTTTTCCCGGTAATCCGTATTTGTC (site TTAGCTGCTTA) | 0.15
58 | TTAGTATCATGGACCGGTTTTCCCGGTAATCCGTATTTGAC (site ATAGTATCTGT) | 2.12
59 | TTAGTATCATGGACCGGTTTTCCCGGTAATCCGTATTTGAC (site CTAGTATCTGT) | 2.18
60 | TTAGTATCATGGACCGGTTTTCCCGGTAATCCGTATTTGAC (site GTAGTATCTGT) | 0.348
61 | TTAGTATCATGGACCGGTTTTCCCGGTAATCCGTATTTGAC (site TTAGTATCTGT) | 2.84
62 | TTAGTCACATGGACCGGTTTTCCCGGTAATCCGTATTTGGG (site TTAGTCACTCC) | 0.0104
63 | TTAGTCGCATGGACCGGTTTTCCCGGTAATCCGTATTTGCG (site ATAGTCGCTCG) | 0.0346
64 | TTAGTCGCATGGACCGGTTTTCCCGGTAATCCGTATTTGCG (site CTAGTCGCTCG) | 0.00978
65 | TTAGTCGCATGGACCGGTTTTCCCGGTAATCCGTATTTGCG (site GTAGTCGCTCG) | 0.00638
66 | TTAGTCGCATGGACCGGTTTTCCCGGTAATCCGTATTTGCG (site TTAGTCGCTCG) | 0.224
67 | TTAGTTACATGGACCGGTTTTCCCGGTAATCCGTATTTGGC (site TTAGTTACTGC) | 0.857
68 | TTATCATCATGGACCGGTTTTCCCGGTAATCCGTATTTGCA (site TTATCATCTTG) | 1.53
69 | TTATCGTCATGGACCGGTTTTCCCGGTAATCCGTATTTGGC (site TTATCGTCTGC) | 1.36
70 | TTATCTGCATGGACCGGTTTTCCCGGTAATCCGTATTTGAT (site TTATCTGCTAT) | 0.557
71 | TTATGCACATGGACCGGTTTTCCCGGTAATCCGTATTTGTA (site ATATGCACTTA) | 0.0128
72 | TTATGCACATGGACCGGTTTTCCCGGTAATCCGTATTTGTA (site CTATGCACTTA) | 0.34
73 | TTATGCACATGGACCGGTTTTCCCGGTAATCCGTATTTGTA (site GTATGCACTTA) | 0.0305
74 | TTATGCACATGGACCGGTTTTCCCGGTAATCCGTATTTGTA (site TTATGCACTTA) | 0.769
75 | TTATTCCCATGGACCGGTTTTCCCGGTAATCCGTATTTGCA (site TTATTCCCTTG) | 0
